Assay: Stability of NO2-OA/β-cyclodextrin inclusion complex resuspended in water
Type: physicochemical
Method: An important consideration when working with nitroalkene fatty acids is their high sensitivity to water or humidity. […] Stability was compared with the total amount added to the aqueous solution.
These stability assays were performed at room temperature and data was similar between the two tested concentrations of 0.31 mg/ml and 1.95 mg/ml. […] A new equilibrium is rapidly achieved and the sample is stable after this initial decay.

CCCCCCCCC(=CCCCCCCCC(=O)O)[N+](=O)[O-] [NO2-OA, 10-nitro-octadec-9-enoic acid]
time to complete decomposition of NO2-OA in water (NO2-OA added to water without cyclodextrin): ≤ 4 h | time to loss of 10-NO2-OA in solution (same molar amount of 10-NO2-OA added to water): ≤ 4 hrs
